Assay results reported in patent publication US20260053834A1, “COVALENT MODIFIERS OF AKT1 AND USES THEREOF” (Terremoto Biosciences, Inc., priority 2023, published 2026).

How the values were obtained:
[1] = biological target: T1, AKT1 E17K (Homo sapiens, UniProt P31749, E17K); assay: Live cell target engagement by NanoBRET competitive probe displacement, AKT1 E17K; format: binding; conditions: transfected HEK293 cells, 2 h at 37° C., read-out: AKT1 E17K IC50: GeoMean IC50
T1 construct: expressed in transfected cells; host or cells: HEK293

[2] = biological target: T2, AKT2 (Homo sapiens, UniProt P31751); assay: Live cell target engagement by NanoBRET competitive probe displacement, AKT2; format: binding; conditions: transfected HEK293 cells, 2 h at 37° C., read-out: AKT2 IC50: GeoMean IC50
T2 construct: expressed in transfected cells; host or cells: HEK293

[3] = test system: LAPC4 prostate cancer cells, which express the AKT1 E17K allele; assay: Antiproliferative effects in LAPC4 cells (CellTiter Glo, 72 h); format: cell-based; conditions: Homo sapiens, LAPC4, 72 h, read-out: LAPC4 proliferation IC50: GeoMean IC50
Method in brief: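 IC50 values come from Hill-equation fitting of luminescence (cellular ATP) after 72 h compound exposure. Treated wells held 1,000 cells each, with compound delivered as DMSO dilutions. Culture medium was IMDM plus 12% FBS.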

[4] = biological target: T3, AKT1 WT (Homo sapiens, UniProt P31749); assay: Live cell target engagement by NanoBRET competitive probe displacement, AKT1 WT; format: binding; conditions: transfected HEK293 cells, 2 h at 37° C., read-out: AKT1 WT IC50: GeoMean IC50
T3 construct: expressed in transfected cells; host or cells: HEK293
T3 sequence (P31749 whole entry): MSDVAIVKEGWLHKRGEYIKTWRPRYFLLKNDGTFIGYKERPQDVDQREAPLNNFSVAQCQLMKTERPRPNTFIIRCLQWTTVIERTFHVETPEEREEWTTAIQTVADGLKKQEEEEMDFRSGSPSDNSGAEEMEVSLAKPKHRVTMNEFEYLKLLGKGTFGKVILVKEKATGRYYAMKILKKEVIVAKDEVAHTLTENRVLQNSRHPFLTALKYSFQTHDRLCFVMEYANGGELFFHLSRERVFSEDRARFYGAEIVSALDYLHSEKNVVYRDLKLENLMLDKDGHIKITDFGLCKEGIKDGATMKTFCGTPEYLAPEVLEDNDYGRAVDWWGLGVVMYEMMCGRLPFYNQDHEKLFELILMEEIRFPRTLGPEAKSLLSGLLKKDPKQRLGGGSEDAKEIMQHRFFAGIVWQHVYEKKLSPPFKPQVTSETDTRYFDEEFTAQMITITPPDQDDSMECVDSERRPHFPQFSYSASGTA

T2 sequence (P31751 whole entry): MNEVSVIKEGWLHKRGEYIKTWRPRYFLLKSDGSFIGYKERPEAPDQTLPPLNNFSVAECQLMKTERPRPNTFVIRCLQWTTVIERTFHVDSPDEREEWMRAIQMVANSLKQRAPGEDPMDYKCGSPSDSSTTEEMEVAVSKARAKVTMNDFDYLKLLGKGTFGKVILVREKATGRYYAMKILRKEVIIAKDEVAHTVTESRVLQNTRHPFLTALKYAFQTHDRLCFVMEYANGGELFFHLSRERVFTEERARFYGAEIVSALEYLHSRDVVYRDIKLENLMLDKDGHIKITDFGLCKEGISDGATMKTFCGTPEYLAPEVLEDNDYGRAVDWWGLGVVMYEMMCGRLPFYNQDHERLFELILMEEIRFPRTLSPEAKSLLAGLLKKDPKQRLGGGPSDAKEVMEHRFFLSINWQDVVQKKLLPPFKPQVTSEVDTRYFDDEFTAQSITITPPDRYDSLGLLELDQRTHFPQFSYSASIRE
T1 sequence (P31749 whole entry E17K): as the sequence (P31749 whole entry) above, with E17K counted along it

| Structure (SMILES) | IC50 [1] [nM] | IC50 [2] [nM] | IC50 [3] [nM] | IC50 [4] [nM] |
| --- | --- | --- | --- | --- |
| Nc1ncccc1-c1nc2ccc(-n3cccn3)nc2n1-c1ccc2c(c1)C(=O)C[C@@H]2NC(=O)c1ccc(O)c(C=O)c1 [Example 85, N-[(1S)-5-[2-(2-aminopyridin-3-yl)-5-(pyrazol-1-yl)imidazo[4,5-b]pyridin-3-yl]-3-oxo-1,2-dihydroinden-1-yl]-3-formyl-4-hydroxybenzamide] | 100 to 2000 | 100 to 2000 | ≥ 2000 | 100 to 2000 |
| CC(=O)c1cc(C(=O)N[C@H]2CCc3cc(-n4c(-c5cccnc5N)nc5ccc(-n6cccn6)nc54)ccc32)cc(C=O)c1O [Example 102, (S)-3-acetyl-N-(5-(2-(2-aminopyridin-3-yl)-5-(1H-pyrazol-1-yl)-3H-imidazo[4,5-b]pyridin-3-yl)-2,3-dihydro-1H-inden-1-yl)-5-formyl-4-hydroxybenzamide] | 10 to 100 | 10 to 100 | 100 to 2000 | 10 to 100 |
| Nc1ncccc1-c1nc2ccc(-n3cccn3)nc2n1-c1ccc2c(c1)CC[C@@H]2NC(=O)c1csc(C=O)n1 [Example 143, (S)—N-(5-(2-(2-aminopyridin-3-yl)-5-(1H-pyrazol-1-yl)-3H-imidazo[4,5-b]pyridin-3-yl)-2,3-dihydro-1H-inden-1-yl)-2-formylthiazole-4-carboxamide] | 100 to 2000 | 100 to 2000 | 100 to 2000 | 100 to 2000 |
| Nc1ncccc1-c1nc2ccc(-c3ccccc3)nc2n1-c1ccc2c(c1)CCC2C(=O)Nc1ccc(O)c(C=O)c1 (stereo not drawn) [Example 27, 5-[2-(2-aminopyridin-3-yl)-5-phenylimidazo[4,5-b]pyridin-3-yl]-N-(3-formyl-4-hydroxyphenyl)-2,3-dihydro-1H-indene-1-carboxamide] | 10 to 100 | 100 to 2000 | 100 to 2000 | 100 to 2000 |
| Cc1ccc2nc(-c3cccnc3N)n(-c3ccc4c(c3)CC[C@@H]4NC(=O)c3ccc(O)c(C=O)c3)c2n1 [Example 13, N-[(1S)-5-[2-(2-aminopyridin-3-yl)-5-methylimidazo[4,5-b]pyridin-3-yl]-2,3-dihydro-1H-inden-1-yl]-3-formyl-4-hydroxybenzamide] | 10 to 100 | ≥ 2000 | 100 to 2000 | 100 to 2000 |
| CCc1cc(-n2cccn2)nc2c1nc(-c1cccnc1N)n2-c1ccc2c(c1)CC[C@@H]2NC(=O)c1ccc(O)c(C=O)c1 [Example 197, N-[(1S)-5-[2-(2-aminopyridin-3-yl)-7-ethyl-5-(pyrazol-1-yl)imidazo[4,5-b]pyridin-3-yl]-2,3-dihydro-1H-inden-1-yl]-3-formyl-4-hydroxybenzamide] | 10 to 100 | 10 to 100 | 100 to 2000 | 10 to 100 |
| Nc1ncccc1-c1nc2ccc(-n3cc(C(F)F)cn3)nc2n1-c1ccc2c(c1)CC[C@@H]2NC(=O)c1ccc(O)c(C=O)c1 [Example 94, N-[(1S)-5-[2-(2-aminopyridin-3-yl)-5-[4-(difluoromethyl)pyrazol-1-yl]imidazo[4,5-b]pyridin-3-yl]-2,3-dihydro-1H-inden-1-yl]-3-formyl-4-hydroxybenzamide] | 10 to 100 | 100 to 2000 | 100 to 2000 | 100 to 2000 |
| Nc1ncccc1-c1nc2ccc(-n3cccn3)nc2n1-c1ccc2c(c1)CC[C@@H]2NC(=O)c1ccc(O)c(C=O)c1 [Example 33, (S)—N-(5-(2-(2-aminopyridin-3-yl)-5-(1H-pyrazol-1-yl)-3H-imidazo[4,5-b]pyridin-3-yl)-2,3-dihydro-1H-inden-1-yl)-3-formyl-4-hydroxybenzamide] | 10 to 100 | 100 to 2000 | 10 to 100 | 10 to 100 |
| CS(=O)(=O)Nc1cc(-n2cccn2)nc2c1nc(-c1cccnc1N)n2-c1ccc2c(c1)CC[C@@H]2NC(=O)c1ccc(O)c(C=O)c1 [Example 232, N-[(1S)-5-[2-(2-aminopyridin-3-yl)-7-methanesulfonamido-5-(pyrazol-1-yl)imidazo[4,5-b]pyridin-3-yl]-2,3-dihydro-1H-inden-1-yl]-3-formyl-4-hydroxybenzamide] | ≥ 2000 | ≥ 2000 | ≥ 2000 | ≥ 2000 |
